Assay results taken from US20020037544A1 (priority 1998, published 2002).
“Also recorded” adds a separate entry of the source.

How the values were obtained:
[1] = test system: p120 and p100; experiment: p120/p100 band shift (mobility shift) by SDS-PAGE and immunoblotting in HUVEC; type: cell-based, Human; conditions: for p120/p100 electrophoretic mobility (band shift): 10 μM histamine, 200 nM PDB
Description: (§1) Human umbilical vein endothelial cells (HUVEC), pooled donors, were from BioWhitaker and cultured in EGM on collagen-coated plastic (Falcon) according to the supplier's instructions. The cells were cultured in medium in the presence of 100 U/ml penicillin and 100 μg/ml streptomycin at 37° C. in humidified air containing 10% CO2. Routinely, stocks were maintained in 75 cm^2 flasks and split at a 1:3 ratio when almost confluent. For experimental use, cells were seeded in appropriate plasticware such that confluence was established within 2-3 days and the cells were usually used 5-6 days after seeding. Prior to experimental use, confluent monolayers of cells were equilibrated in fresh medium for at least 2 hours prior to the start of the experiment. Compounds and agents that were only soluble in Me2SO were added to the culture medium of the cells in an equal volume of CO2-and temperature-equilibrated medium containing twice the finally required concentration of compound. […] Aqueous soluble agents were added at a 1:100 dilution directly to the cultures. In all cases, appropriate vehicle controls were performed and found to have no effect.
(§2) Whole cell lysates were prepared by aspiration of culture medium and immediately replacing it with boiling hot Laemmli sample buffer (Laemmli, U. K. (1970) Cleavage of structural proteins during the assembly of the head of bacteriophage T4. Nature 227, 680-685) supplemented with 5 mM EDTA.Na4. The samples were collected and heated at 100° C. for 5 minutes. Proteins were resolved by gel electrophoresis using 8% acrylamide slab gels (Hoefer SE 600 system, 16 cm) and the buffers described (Laemmli, 1970, loc cit). Gels were run overnight at 55 V. The gels were then equilibrated for 30 minutes in buffer at 4° C. containing 48 mM Tris, 39 mM glycine, 0.03% SDS (w/v) and 20% methanol (v/v), and electrotransferred to nitrocellulose filters (Hybond ECL, Amersham) at 4° C. After Ponceau S staining, the filters were blocked in PBS containing 1% (w/v) BSA and 0.05% (v/v) Tween-20. The filters were then incubated with primary antibody, rinsed and immunoreactive bands were detected using appropriate HRP-conjugated secondary antibody and chemiluminescence (ECL, Amersham).
Incubations were performed in triplicate and analyzed in parallel. The cells were extracted in Laemmli sample buffer and proteins were resolved by SDS-PAGE. […] Other experiments have shown that this is due to the loss of phosphate from the protein on serine and threonine residues.
(§3) Cell extracts were prepared and p120 (◯) and p100 (●) were detected by immunoblotting following SDS-PAGE, FIG. 2, Panel A. The same filter was also probed with the antibody recognizing the activated forms of p42 and p44 MAP kinase (arrowheads), FIG. 2, Panel B. Equal loading of lanes was verified as in FIG. 1. […] After 60 minutes of incubation, the effect was less apparent (FIG. 2A). The kinetics paralleled those of the increase in amount of activated MAP kinase (FIG. 2B).
(§4) Cell extracts were prepared and p120 (◯) and p100 (●) were detected by immunoblotting following SDS-PAGE, FIG. 3, Panel A. The same filter was also probed with the antibody recognizing the activated forms of p42 and p44 MAP kinase (arrowheads), FIG. 3, Panel B. Equal loading lanes was verified as in FIG. 1. […] The sensitivity of the increase in amount of activated MAP kinase paralleled that of the increase in p120/p100 mobility (FIG. 3B).
To determine which receptor(s) were responsible for the p120/p100 shift, the effects of placenta derived growth factor (P/GF), a VEGFR-1-specific ligand, were examined.

[2] = test system: p42 and p44 MAP kinase; experiment: immunoblot for activated forms of p42 and p44 MAP kinase in HUVEC; type: cell-based, Human; conditions: for amount of activated (phosphorylated) p42/p44 MAP kinase: 10 μM histamine, 200 nM phorbol 12,13 dibutyrate
Description: as §1, §2
To reveal other changes in VEGF-stimulated signalling processes, the filters were also probed with an antibody recognizing the activated forms of p42 and p44 MAP kinase.
as §3, §4
To determine which receptor(s) were responsible for the p120/p100 shift, the effects of placenta derived growth factor (P/GF), a VEGFR-1-specific ligand, were examined. Confluent monolayers of HUVECs were incubated for 5 minutes in the absence (lane labelled C) or presence of P/GF at 100 (P/GF100) or 1000 ng/ml (P/GF1000). […] In another experiment, the cells were preincubated for 30 minutes in the absence (−) or presence (+) of 5 μM of the VEGFR-2 inhibitor SU5416. […] In all cases, cell extracts were prepared and p120 (◯) and […] (●) were detected by immunoblotting following SDS-PAGE, FIGS. 4A and 4C. […]

[3] = test system: β-catenin, p120 and p100; experiment: PY20 anti-phosphotyrosine immunoprecipitation and immunoblotting; type: cell-based, Human; conditions: HUVEC; for β-catenin and p120/p100 in phosphotyrosine (PY20) immunoprecipitates: 2.6 nM VEGF or 10 μM histamine 5 minutes, 100 μM pervanadate 15 minutes
Description: For p120/p100-specific and phosphotyrosine (PY20) protein immunoprecipitations, the cells were lysed in boiling SDSSB (1% SDS, 25 mM Hepes, 2 mM EDTA, 0.1 M NaCl, 25 mM NaF, 1 mM vanadate, pH 7.6). The lysate was then collected, heated at 100° C. for 5 minutes, cooled and diluted with four volumes of ice-cold TX buffer that contained 2.9% instead of 1% Triton X-100. Immunoprecipitation was performed as described for TX buffer extractions.
Some cells were treated for 15 minutes with 100 μM of the broad-spectrum tyrosine phosphatase inhibitor, pervanadate. Lysates of the cells were prepared by immediate extraction into a boiling solution of an SDS-based buffer containing kinase and phosphatase inhibitors, as described above.
These extracts were then immunoprecipitated with antiphosphotyrosine antibody PY20 and analyzed by immunoblotting with PY20 (FIG. 7D).

[4] = test system: p120 and p100; conditions: HUVEC, 2.6 nM VEGF, 5 minutes
[5] = test system: cadherin/catenin complex; conditions: HUVEC, 2.6 nM VEGF, 5 minutes
Description: For analysis of the cadherin and its association with catenins, extraction and immunoprecipitations were performed at 4° C. Cultures were briefly rinsed with ice-cold PBS and then lysed in TX buffer (1% (v/v) Triton X-100, 25 mM Hepes, 2 mM EDTA, 0.1 M NaCl, 25 mM NaF, 1 mM vanadate, pH 7.6 (adjusted with NaOH), 1 mM PMSF, 10 μg/ml soybean trypsin inhibitor, 0.1 U/ml α2-macroglobulin, 10 μg/ml leupeptin). The cells were extracted into lysis buffer for 10-15 minutes and then collected after scraping the dish. The lysates were centrifuged at 14,000×g for 20 minutes. The supernatant was precleared with protein A-Sepharose (Pharmacia) for 1 hour and then incubated with primary antibody for 1 hour followed by a further 1 hour with protein A-Sepharose together with rabbit anti-mouse antibodies. After five washes in lysis buffer, immune complexes were dissociated by addition of Laemmli sample buffer followed by heating at 100° C. for 5 minutes. Protein analysis was by SDS-PAGE and immunoblotting as described above.

[6] = test system: HUVEC; conditions: 2.6 nM VEGF, 5 minutes
Description: Confluent monolayers of cells were fixed at room temperature for 15 minutes in 3% paraformaldehyde made up in PBS. Fixed cells were rinsed and then permeabilized by incubation with 0.5% Triton X-100 in PBS for 30 minutes. All antibodies were diluted in PBS containing 10% FCS, 0.1 M lysine, 0.3% Triton-X-100 and 0.02% azide. Incubation with antibody recognizing junction-associated protein was at 4° C. overnight followed by incubation with mouse or rabbit anti-phosphotyrosine antibody for 2 hours at room temperature. Secondary antibodies recognizing mouse and rabbit IgG conjugated to Cy3 or fluorescein, respectively, were applied together for 1 hour at room temperature. After rinsing, the samples were mounted under Citifluor and viewed with epifluorescence on a Nikon Eclipse E800 microscope. Photographs were taken using Kodak T-MAX film (400 ASA).
After 5 minutes, the cells were fixed and then stained. […] All images were from similarly timed exposures. Bar, 20 μm.

[7] = test system: p120 and p100; conditions: HUVEC, 5 minutes; 2.6 nM VEGF, 10 μM histamine, 200 nM PDB
Description: [^32P]Phosphate labelling was performed using Puck's Saline A (P-2917; Sigma, supplemented with 10 mM Hepes (Gibco), 2 mM glutamine (Gibco), 1 mM CaCl2, 1 mM MgSO4 and 0.2% (v/v) foetal calf serum. Cultures were rinsed twice with medium and then incubated with the same medium containing 100 μCi/ml of [^32P]phosphate. Labelling was for 2 hours at 37° C. in humidified air with ambient CO2.
For phosphorylation analysis, cultures of HUVECs were labelled with [^32P]orthophosphate. After appropriate treatment, the cultures were lysed in boiling SDSSB and immunoprecipitated with the anti-p120/p100 antibody as described. For quantitation of [^32P]phosphate:protein, each immunoprecipitation was from protein extracted from ˜10 cm^2 of confluent culture. For the phosphoaminoacid analysis and Cleveland maps, protein from ˜60 cm^2 of confluent cells was used per immunoprecipitation. After separation by SDS-PAGE, for quantitation of [^32P]phosphate and p120/p100, protein was transferred to nitrocellulose and [^32P]phosphate incorporated into p120/p100 was detected by autoradiography. […] The area of filter containing p120 or p100 was detected by autoradiography, excised, and protein was acid hydrolysed to release phosphoaminoacids. These were then separated in two dimensions by high voltage electrophoresis at pH 1.9 and pH 3.5 and detected by autoradiography (Boyle et al., 1991). […]

[8] = HUVEC preincubated 30 minutes with 5 μM, then 2.6 nM VEGF 5 minutes
[9] = HUVEC preincubated 30 minutes with 5 μM, then 10 μM histamine 5 minutes
[10] = HUVEC, 100 μM pervanadate, 15 minutes
[11] = HUVEC, 5 minutes, P/GF at 100 or 1000 ng/ml

## NCCc1c[nH]cn1 [Histamine, reference compound]
[1]; HUVEC, 5 minutes, 2.6 nM VEGF
  p120/p100 electrophoretic mobility (band shift): effective; also recorded: increased electrophoretic mobility; also recorded: produced effects
[2]; HUVEC, 5 minutes, 2.6 nM VEGF
  amount of activated (phosphorylated) p42/p44 MAP kinase: increased the amounts of phospho-MAP kinases
[2]; HUVEC, 5 minutes, 2.6 nM VEGF, listed as histamine
  amount of activated (phosphorylated) p42/p44 MAP kinase: effective; also recorded: produced effects
[3]
  β-catenin and p120/p100 in phosphotyrosine (PY20) immunoprecipitates: did not reveal any hint

## CCCC(=O)O[C@@H]1[C@@H](C)[C@@]2(O)[C@@H](C=C(CO)C[C@]3(O)C(=O)C(C)=C[C@@H]23)[C@@H]2C(C)(C)[C@]12OC(=O)CCC [PDB, Phorbol-12,13-dibutyrate, reference compound]
[1]; HUVEC, 5 minutes, 2.6 nM VEGF
  p120/p100 electrophoretic mobility (band shift): increased electrophoretic mobility
[2]; HUVEC, 5 minutes, 2.6 nM VEGF
  amount of activated (phosphorylated) p42/p44 MAP kinase: without effect

## Cc1cc(C)c(/C=C2\C(=O)Nc3ccccc32)[nH]1 [SU5416, reference compound]
[1]; [8]
  effect on VEGF-stimulated increase in p120/p100 mobility: blocked
[1]; [9]
  effect on histamine-stimulated mobility shift in p120/p100: did not block
[2]; [8]
  effect on VEGF-stimulated activation of MAP kinase: blocked
[2]; [9]
  effect on histamine-stimulated activation of MAP kinase: did not block

## VEGF
[1]; HUVEC, 2.6 nM (100 ng/ml) VEGF
  time at which increase in mobility of p120 and p100 was observed: ≤ 2 min
  time for which increase in mobility of p120 and p100 was sustained: up to 30 minutes
[1]; HUVEC, 2.6 nM VEGF, 60 minutes
  effect on p120/p100 mobility after 60 minutes of incubation: less apparent
[1]; HUVEC, 5 minutes
  lowest concentration with observed effect on p120/p100 mobility: 0.1 nM
[1]; HUVEC, 5 minutes, 2.6 nM VEGF
  p120/p100 electrophoretic mobility (band shift): migrate as faster, tighter bands; also recorded: effective; also recorded: increased electrophoretic mobility; also recorded: produced effects
[4]
  phosphotyrosine in p120 and p100: not detected
[4]; 10 μM histamine, 200 nM PDB
  amount of phosphoserine and phosphothreonine in p120 and p100: decreased
[2]; HUVEC, 2.6 nM VEGF, time course
  kinetics of increase in activated MAP kinase relative to p120/p100 mobility: paralleled
[2]; HUVEC, 5 minutes, indicated concentrations of VEGF
  sensitivity of increase in activated MAP kinase relative to p120/p100 mobility: paralleled
[2]; HUVEC, 5 minutes, 2.6 nM VEGF
  amount of activated (phosphorylated) p42/p44 MAP kinase: clearly stimulated an increase; also recorded: effective; also recorded: produced effects
[5]
  association of catenins with cadherins (VE-cadherin, N-cadherin, α, β and γ catenin, p120, p100): no effect on association of any members of the complex
[3]; 2.6 nM VEGF, 5 minutes
  focal contact protein tyrosine phosphorylation (PY20 immunoprecipitation): increased
[3]
  β-catenin and p120/p100 in phosphotyrosine (PY20) immunoprecipitates: did not reveal any hint
[6]
  colocalization of altered phosphotyrosine staining with β-catenin staining: did not colocalize
  phosphotyrosine striations within the cells: increased
  vinculin staining: appearance of vinculin-positive striations
[7]
  phosphate incorporation into 30 kDa and 17 kDa V8 cleavage products of p120 and p100: substantially decreased

## pervanadate [reference compound]
[1]; [10]
  mobility of p120/p100: did not affect the mobility
[2]; [10]
  activation of MAP kinase: did lead to activation of MAP kinase
[3]
  β-catenin and p120/p100 in phosphotyrosine (PY20) immunoprecipitates: detected

B1: P/GF: placenta derived growth factor, a VEGFR-1-specific ligand, from R & D Systems (protein, UniProt P49763 19-221, looked up)
Placenta growth factor: LPAVPPQQWALSAGNGSSEVEVVPFQEVWGRSYCRALERLVDVVSEYPSEVEHMFSPSCVSLLRCTGCCGDENLHCVPVETANVTMQLLKIRSGDRPSYVELTFSQHVRCECRHSPGRQSPDMPGDFRADAPSFLPPRRSLPMLFRMEWGCALTGSQSAVWPSSPVPEEIPRMHPGRNGKKQQRKPLREKMKPERCGDAVPRR
[1]; [11]
  mobility shift in p120/p100: failed to stimulate a mobility shift
[2]; [11]
  activation of MAP kinase: did not lead to activation of MAP kinase
